What was measured:
[1] = test system: C26 colon tumors; assay: Survival of mice with IP C26 colon tumors; type: in vivo, BalbC mice; conditions: amifostine 200 mg/kg for five administrations
Method: Euthanasia was provided for animals with weight loss greater than 20% or with clinical signs of distress. Survival of female BalbC mice with IP C26 colon tumors treated once with Doxil® (8 mg/kg) (tumor inoculation: 10^6 cells IP). Animals were administered 200 mg/kg of amifostine subcutaneously (SC) prior to Doxil® administration and 1, 2, 4 and 6 days after Doxil® administration (FIG. 4).

[2] = test system: PPE lesions; assay: Rat model of Doxil-induced palmar-plantar erythrodysesthesia (PPE); type: in vivo, Sprague-Dawley rats
Method: PPE score is the product of Severity Score and percentage of body area affected. Overall PPE score is the sum of scores for each body area.
24 male Sprague-Dawley rats weighing between 250 to 300 grams(g) were intravenously (IV) treated with Doxil® weekly for 5 cycles of administration. The dosage administered was 2.5 mg/kg IV. […] The rats were observed weekly for lesions and scoring (FIG. 1). Scores for severity and percentage affected body area were analyzed and reported on final observation.
Sprague-Dawley rats were treated with amifostine at a dosage of 100 or 200 milligram/kilogram (mg/kg) IV, weekly, approximately 15 minutes before each Doxil® injection or treated with amifostine, 100 mg/kg IV, twice weekly at 15 min before and 3 days after Doxil injection (FIG. 2).

[3] = test system: Lewis lung tumors; assay: Growth of SC Lewis lung tumors
Method: Doxil® was administered 4 mg/kg IV, weekly for 3 cycles. Amifostine, 100 or 200 mg/kg IV, was administered before and 1, 2, and 3 days after each Doxil® treatment cycle.

[4] = test system: murine and human xenograft tumor models; conditions: in vivo; cited from earlier work
[5] = test system: canine non-Hodgkin's lymphoma; conditions: cited from earlier work

Row | SMILES | toxicity (weight loss, lethargy) [1] | overall PPE severity score ([2]; amifostine 100 mg/kg IV twice weekly, 15 min before and 3 days after Doxil 2.5 mg/kg, p<0.02) | overall PPE severity score ([2]; amifostine 100 mg/kg IV weekly, 15 min before each Doxil 2.5 mg/kg, not significant) | overall PPE severity score ([2]; amifostine 200 mg/kg IV weekly before each Doxil 2.5 mg/kg, p<0.01) | incidence of PPE ([2]; amifostine treatment with liposomal doxorubicin 2.5 mg/kg weekly) | rate of tumor growth ([3]; Doxil 4 mg/kg IV weekly for 3 cycles, amifostine 100 or 200 mg/kg IV before and 1, 2, 3 days after each Doxil) | toxicity to the animals ([3]; amifostine 200 mg/kg days 0-3 of each Doxil treatment cycle) | effect of pyridoxine co-treatment on therapeutic effect of liposomal doxorubicin [4] | likelihood of severe PPE and discontinuation, placebo-treated versus pyridoxine-treated dogs (relative risk) ([5]; liposomal doxorubicin 1 mg/kg q 3 weeks x5, pyridoxine 50 mg tid oral 15 weeks, p=0.032) [fold] | remission rates between groups ([5]; pyridoxine versus placebo) | duration of remission ([5]; pyridoxine-treated dogs, placebo 48 days, p=0.084) [days] | survival ([5]; pyridoxine-treated dogs, placebo 130 days, p=0.182) [days]
1 | NCCCNCCSP(=O)(O)O [amifostine] | Significant toxicity | 4.33 | 7.94 | 3.18 | reduced | did not affect rate of tumor growth | not significantly toxic |  |  |  |  | 
2 | Cc1ncc(CO)c(CO)c1O [pyridoxine] |  |  |  |  |  |  |  | does not reduce the therapeutic effect | 4.2 | No difference | 159 | 201
